In the test the test system is Dukin-Hartley guinea pigs. Kind of test: Bronchodilating activity in vivo (Konzett and Rossler), histamine bronchospasm. Also on record: species or system guinea pig. The settings on record: Cavia porcellus, iv, effective dose for 50% inhibition, anaesthetized guinea pigs. The protocol: The bronchodilating activity was measured in vivo by the method of Konzett H. and Rossler R. (Arch. Exp. Pathol. Pharmak., 1940, 195, p. 71 to 74) and Duhault J. et al. (Arzneim. Forsch./Drug. res., 1987, 37, p. 1353 to 1362).
Measurement of the bronchodilating activity:
Dukin-Hartley guinea pigs (400-500 g) are prepared according to the methodology described by Konzett and Rossler. The animals are anaesthetized by an intraperitoneal injection of urethane (1.5 g/kg) and a tracheotomy is prepared for artificial respiration (45 cycles/min; respiratory volume 10 ml/kg).
The animal is connected to a respiratory pump, which is adjusted to deliver a volume of 1 ml per 100 g of body weight of the guinea pig. It is connected to a recorder via a pressure sensor.
A catheter is placed in the jugular for the I.V. injections.
An I.V. injection of gallamine and propanolol is carried out. After stabilizing the pulmonary pressure for 30 minutes, an I.V. injection of histamine is carried out every 10 minutes until reproducibility is achieved; at that point, the test product is injected 10 minutes after the last spasm.

[1] abbreviates: 5 min, I.V. histamine tested 5 minutes after injection of the product, read-out: Bronchospam ED50 at 5 min.
The mark [2] stands for this setting: 0.25 h, I.V. histamine tested 15 minutes after injection of the product, read-out: Bronchospam ED50 at 15 min.

Read-outs that look alike come from different tables or passages of the source.

What is called ED50 is the dose at which the effect has come halfway, by size or by number of responders.

In the case of `CC1(C)C=C(c2cccc[n+]2[O-])c2cc(C#N)ccc2CC1` [Compound 109, 8-Cyano-3,3-dimethyl-1-(2-pyridyl N-oxide)-4,5-dihydro-3H-benzo [f]cycloheptane], the median effective dose (ED50) stood at 0.086 mg/kg under setting [1] and 0.331 mg/kg under setting [2].
As to `CC1(C)C=C(c2cccc[n+]2[O-])c2cc(Cl)ccc2OC1` [Compound 91, 7-Chloro-3,3-methyl-(2-pyridyl N-oxide)-2,3-dihydro-1-benzoxepine], the 50% effective dose (ED50) under setting [1] turned out to be 0.1 mg/kg.
On to `CC1(C)C=C(c2cccc[n+]2[O-])c2cc(C#N)ccc2OC1` [Compound 104, 7-Cyano-3,3-dimethyl-5-(2-pyridyl N-oxide)-2,3-dihydro-1-benzoxepine], for which the ED50 reads like this: under setting [1], 0.038 mg/kg; under setting [2], 0.21 mg/kg.
The like results for `CC1(C)C=C(c2cccc[n+]2[O-])c2cc(Cl)c(Cl)cc2OC1` [Compound 111, 7,8-Dichloro-3,3-dimethyl-5-(2-pyridyl N-oxide)-2,3-dihydro-1-benzoxepine] were, in that order, 0.049 mg/kg and 0.1 mg/kg.
The like results for `CC1(C)C=C(c2cccc[n+]2[O-])c2cc(F)c(F)cc2OC1` [Compound 114, 7,8-Difluoro-3,3-dimethyl-5-(2-pyridyl N-oxide) -2,3-dihydro-1-benzoxepine] were, in that order, 0.04 mg/kg and 0.3 mg/kg.
For the compound `CC1(C)C=C(c2cccc[n+]2[O-])c2cc(C(F)(F)F)ccc2OC1` [Compound 100, 3,3-Dimethyl-5-(2-pyridyl N-oxide)-7-trifluoromethyl-2,3-dihydro-1-benzoxepine], the ED50 is, setting by setting: under setting [1], 0.069 mg/kg; under setting [2], 0.101 mg/kg.
Turning to `Cc1cc2c(cc1C#N)OCC(C)(C)C=C2c1cccc[n+]1[O-]` [Compound 119], the ED50 turned out to be 0.31 mg/kg under setting [1] and 0.53 mg/kg under setting [2].
Regarding `Cc1cc2c(cc1C#N)C(c1cccc[n+]1[O-])=CC(C)(C)CO2` [Compound 118, 7-Cyano-3,3,8-trimethyl-5-(2-pyridyl N-oxide)-2,3-dihydro-1-benzoxepine], the ED50 by setting is: under setting [1], 0.15 mg/kg; under setting [2], 0.2 mg/kg.

Values taken from US5652252A, “Benzocycloheptenes” (Merck Patent Gesellschaft Mit Beschrankter Haftung, priority 1992, dated 1997).
